Source: patent US20140081017A1, “Histone Deacetylase Inhibitors for Enhancing Activity of Antifungal Agents” (METHYLGENE INC., priority 2012, published 2014)
In brackets after ≈: the same amount, converted by molar mass. Like-named read-outs stand apart in the source and are kept apart here.

Key:
Candida parapsilosis = experiment: Minimal Inhibitory Concentration (MIC) assay, broth microdilution per CLSI; assay type: cell-based; conditions: Lodderomyces parapsilosis, read-out: Minimum Inhibitory Concentrations against Yeast Isolates, Candida parapsilosis;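 also: two read times 24 hr and 48 hr of incubation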
Summary of the method: (§1)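 CLSI broth microdilution in RPMI with 0.165 M MOPS, pH 7.0, inoculum from 0.5 McFarland suspension diluted 1:100; compounds in DMSO. Incubation at 35°C for about 24-48 hr; MIC is lowest concentration without visible growth, fluconazole at prominent decrease in growth.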

Candida albicans = experiment: as above; assay type: cell-based; conditions: Candida albicans, read-out: Minimum Inhibitory Concentrations against Yeast Isolates, Candida albicans;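 also: two read times 24 hr and 48 hr of incubation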
Summary of the method: as §1

Candida glabrata = experiment: as above; assay type: cell-based; conditions: Nakaseomyces glabratus, read-out: Minimum Inhibitory Concentrations against Yeast Isolates, Candida glabrata;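 also: two read times 24 hr and 48 hr of incubation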
Summary of the method: as §1

C. glabrata = experiment: Checkerboard FIC assay in combination with fluconazole (MIC alone and in combination, FICI); assay type: cell-based, Candida glabrata; conditions: for FICI of combination resulting in fluconazole MIC of: 2 ug/mL / FICI of combination resulting in fluconazole MIC of: 4 ug/mL / FICI of combination resulting in fluconazole MIC of: 8 ug/mL: FICI calculated using a fluconazole MIC of 16 μg/mL; for FICI of combination resulting in fluconazole MIC of: 2 ug/mL (value in parenthesis) / FICI of combination resulting in fluconazole MIC of: 4 ug/mL (value in parenthesis) / FICI of combination resulting in fluconazole MIC of: 8 ug/mL (value in parenthesis): FICI using a fluconazole MIC of 128 μg/mL; for MIC: Nakaseomyces glabratus; for Concentration of Methylgene compound to synergize fluconazole MIC to 2 ug/mL / Concentration of Methylgene compound to synergize fluconazole MIC to 4 ug/mL / Concentration of Methylgene compound to synergize fluconazole MIC to 8 ug/mL: in combination with fluconazole; for Concentration of Methylgene compound to synergize fluconazole MIC to 2 ug/mL: fluconazole MIC lowered to 2 ug/mL; for Concentration of Methylgene compound to synergize fluconazole MIC to 4 ug/mL: fluconazole MIC lowered to 4 ug/mL; for Concentration of Methylgene compound to synergize fluconazole MIC to 8 ug/mL: fluconazole MIC lowered to 8 ug/mL; for Multiple of compound MIC to synergize fluconazole MIC to 2 ug/mL / Multiple of compound MIC to synergize fluconazole MIC to 4 ug/mL / Multiple of compound MIC to synergize fluconazole MIC to 8 ug/mL: concentration in combination as multiple of the compound's MIC alone; for Multiple of compound MIC to synergize fluconazole MIC to 2 ug/mL: fluconazole MIC 2 ug/mL; for Multiple of compound MIC to synergize fluconazole MIC to 4 ug/mL: fluconazole MIC 4 ug/mL; for Multiple of compound MIC to synergize fluconazole MIC to 8 ug/mL: fluconazole MIC 8 ug/mL
Summary of the method: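 A fluconazole synergy checkerboard was run against C. glabrata in MOPS-buffered RPMI (pH 7.0) for about 48 h at 35 °C. Each agent was diluted 2-fold, with one row and one column holding each agent alone for MIC determination. FICI was calculated from these MICs, using a 0.5 McFarland inoculum diluted 1:100 per CLSI.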

[1] = 24 hr reading (first value of cell 24 hr/48 hr)
[2] = 48 hr reading (second value of cell 24 hr/48 hr)
[3] = MIC of the example compound alone against C. glabrata in the checkerboard assay, approximately 48 hr, read-out: Methylgene MIC
[4] = test compound alone, C. glabrata, approx. 48 hr at 35° C., read-out: Compound MIC

Compound	MIC (Candida parapsilosis; [1]) [µg/mL]	MIC (Candida parapsilosis; [2]) [µg/mL]	MIC (Candida albicans; [1]) [µg/mL]	MIC (Candida albicans; [2]) [µg/mL]	MIC (Candida glabrata; [1]) [µg/mL]	MIC (Candida glabrata; [2]) [µg/mL]	FICI of combination resulting in fluconazole MIC of: 2 ug/mL (C. glabrata; C. glabrata)	FICI of combination resulting in fluconazole MIC of: 4 ug/mL (C. glabrata; C. glabrata)	FICI of combination resulting in fluconazole MIC of: 8 ug/mL (C. glabrata; C. glabrata)	FICI of combination resulting in fluconazole MIC of: 2 ug/mL (value in parenthesis) (C. glabrata; C. glabrata)	FICI of combination resulting in fluconazole MIC of: 4 ug/mL (value in parenthesis) (C. glabrata; C. glabrata)	FICI of combination resulting in fluconazole MIC of: 8 ug/mL (value in parenthesis) (C. glabrata; C. glabrata)	MIC (C. glabrata; [3]) [µg/mL]	MIC (C. glabrata; [4]) [µg/mL]	Concentration of Methylgene compound to synergize fluconazole MIC to 2 ug/mL (C. glabrata; C. glabrata) [µg/mL]	Concentration of Methylgene compound to synergize fluconazole MIC to 4 ug/mL (C. glabrata; C. glabrata) [µg/mL]	Concentration of Methylgene compound to synergize fluconazole MIC to 8 ug/mL (C. glabrata; C. glabrata) [µg/mL]	Multiple of compound MIC to synergize fluconazole MIC to 2 ug/mL (C. glabrata)	Multiple of compound MIC to synergize fluconazole MIC to 4 ug/mL (C. glabrata)	Multiple of compound MIC to synergize fluconazole MIC to 8 ug/mL (C. glabrata)
COC(=O)Nc1ccc(CCCCc2ccc(CC(=O)NO)cc2)cc1 [Example 48, methyl 4-(4-(4-(2-(hydroxyamino)-2-oxoethyl)phenyl)butyl) phenylcarbamate]	> 4	> 4	> 4	> 4	> 4	> 4	0.188	0.188	0.313	0.141	0.094	0.125	> 4	> 4	1	0.5	0.5	–	–	–
CN1CCN(CCNC(=O)Nc2cccc(CCCCc3ccc(CC(=O)NO)cc3)c2)CC1 [Example 49, N-hydroxy-2-(4-(4-(3-(3-(2-(4-methylpiperazin-1-yl)ethyl)ureido)phenyl)butyl)phenyl)acetamide]	> 64	> 64	> 64	> 64	16 (≈ 34.2 µM)	> 64	0.188	0.250	0.313	0.141	0.156	0.125	> 16	> 16	4	4	2	–	–	–
O=C(Cc1ccc(CCCCc2cccc(NC(=O)NCCN3CCOCC3)c2)cc1)NO [Example 50, N-hydroxy-2-(4-(4-(3-(3-(2-morpholinoethyl)urei-do)phenyl)butyl)phenyl)acetamide]	> 64	> 64	> 64	> 64	8 (≈ 17.6 µM)	16 (≈ 35.2 µM)	0.313	0.250	0.375	0.266	0.156	0.188	16	16	4	2	2	(¼x)	(⅛x)	(⅛x)
O=C(Cc1ccc(CCCCc2ccc(NS(=O)(=O)CCN3CCOCC3)cc2)cc1)NO [Example 51, N-hydroxy-2-(4-(4-(4-(2-morpholinoethylsulfona-mido)phenyl)butyl)phenyl)acetamide]	> 64	> 64	> 64	> 64	4 (≈ 8.41 µM)	16 (≈ 33.6 µM)	0.313	0.250	0.375	0.266	0.156	0.188	16	16	4	2	2	(¼x)	(⅛x)	(⅛x)
CN1CCN(CCS(=O)(=O)Nc2ccc(CCCCc3ccc(CC(=O)NO)cc3)cc2)CC1 [Example 52, N-hydroxy-2-(4-(4-(4-(2-(4-methylpiperazin-1-yl)ethylsulfonamido)phenyl)butyl)phenyl)acetamide]	> 64	> 64	> 64	> 64	8 (≈ 16.4 µM)	> 64	> 0.563	> 0.625	> 0.500	> 0.516	> 0.531	> 0.313	> 16	> 16	16	16	8	–	–	–
O=C(Cc1ccc(CCCCc2cccc(NS(=O)(=O)CCN3CCOCC3)c2)cc1)NO [Example 53, N-hydroxy-2-(4-(4-(3-(2-morpholinoethylsulfona-mido)phenyl)butyl)phenyl)acetamide]	> 64	> 64	> 64	> 64	16 (≈ 33.6 µM)	32 (≈ 67.3 µM)	0.313	0.250	0.375	0.266	0.156	0.188	16	16	4	2	2	(¼x)	(⅛x)	(⅛x)
CN1CCN(CCS(=O)(=O)Nc2cccc(CCCCc3ccc(CC(=O)NO)cc3)c2)CC1 [Example 54, N-hydroxy-2-(4-(4-(3-(2-(4-methylpiperazin-1-yl)ethylsulfonamido)phenyl)butyl)phenyl)acetamide]	> 64	> 64	> 64	> 64	16 (≈ 32.7 µM)	> 64	0.313	0.250	0.313	0.266	0.156	0.125	> 16	> 16	8	4	2	–	–	–
CC(C(=O)NO)c1ccc(CCCCc2ccccc2)cc1 (stereo not shown) [Example 55, N-hydroxy-2-(4-(4-phenylbutyl)phenyl)propanamide]	0.5 (≈ 1.68 µM)	1 (≈ 3.36 µM)	2 (≈ 6.72 µM)	4 (≈ 13.4 µM)	0.25 (≈ 0.841 µM)	0.5 (≈ 1.68 µM)	0.303	0.365	0.370	0.256	0.271	0.183	0.5	0.5	0.12	0.12	0.06	(¼x)	(¼x)	(⅛x)
